Laboratory results: PMC5386260, “Acute development of cortical porosity and endosteal naïve bone formation from the daily but not weekly short-term administration of PTH in rabbit” (PLoS ONE, 2017)

Assay: Plasma TPTD concentration and pharmacokinetics (Rat PTH IRMA Kit, non-compartmental model)
Format: in vivo, rabbit
Source text: Seventeen female New Zealand White rabbits (Kbl:NZW) were purchased from Kitayama Labs (Nagano, Japan) and were allowed to acclimatize with free access to water and food for 6 days before use. Throughout the experimental study, the animals were housed individually under a 12-h light/dark cycle with free access to water, but their food intake was restricted to 120g /day (LRC4, standard diet for rabbits; Oriental Yeast, Tokyo, Japan). The animals at 6 months of age were divided into 5 groups and were subcutaneously injected with 20 or 40 μg/kg of TPTD once-daily (D20 group [n = 3] and D40 group [n = 3], 140 or 280 μg/kg of TPTD once-weekly (W140 group [n = 3] and W280 group [n = 4]) for four weeks (Table 1). For the high-dose administration of TPTD, the dosage in once-daily treatment was set at 40 μg/kg/day based on a previous study, while the dosage of once-weekly TPTD treatment was set at 280 μg/kg/week; thus, the cumulative dose of TPTD each week was the same with the two treatment frequencies. In the W140 and W280 groups, saline was administered every day, except for the days on which TPTD was administered. Saline injections were administered to control animals (C group, n = 4) once daily and to each group as a vehicle.
[…] The samples were centrifuged at 1600 x g, at 4°C for 10 minutes and plasma samples were collected in order to measure the concentration of TPTD. […]
Teriparatide acetate was synthesized at Asahi Kasei Pharma Corporation (Tokyo, Japan) and was used as a standard substance. The teriparatide acetate concentration in the rabbit plasma was quantified using a Rat PTH IRMA Kit (Immutopics, Inc., San Clemente, CA) according to the manufacturer’s instructions. The pharmacokinetic parameters were calculated using a non-compartmental model (Phoenix WinNonlin; Pharsight, Mountain View, CA).

For `CC[C@H](C)[C@H](NC(=O)[C@H](CCC(=O)O)NC(=O)[C@H](CO)NC(=O)[C@@H](NC(=O)[C@@H](N)CO)C(C)C)C(=O)N[C@@H](CCC(N)=O)C(=O)N[C@@H](CC(C)C)C(=O)N[C@@H](CCSC)C(=O)N[C@@H](Cc1cnc[nH]1)C(=O)N[C@@H](CC(N)=O)C(=O)N[C@@H](CC(C)C)C(=O)NCC(=O)N[C@@H](CCCCN)C(=O)N[C@@H](Cc1cnc[nH]1)C(=O)N[C@@H](CC(C)C)C(=O)N[C@@H](CC(N)=O)C(=O)N[C@@H](CO)C(=O)N[C@@H](CCSC)C(=O)N[C@@H](CCC(=O)O)C(=O)N[C@@H](CCCN=C(N)N)C(=O)N[C@H](C(=O)N[C@@H](CCC(=O)O)C(=O)N[C@@H](Cc1c[nH]c2ccccc12)C(=O)N[C@@H](CC(C)C)C(=O)N[C@@H](CCCN=C(N)N)C(=O)N[C@@H](CCCCN)C(=O)N[C@@H](CCCCN)C(=O)N[C@@H](CC(C)C)C(=O)N[C@@H](CCC(N)=O)C(=O)N[C@@H](CC(=O)O)C(=O)N[C@H](C(=O)N[C@@H](Cc1cnc[nH]1)C(=O)N[C@@H](CC(N)=O)C(=O)N[C@@H](Cc1ccccc1)C(=O)O)C(C)C)C(C)C` [TPTD, Teriparatide], the “time for plasma TPTD levels to return to the basal levels” value (all of the dosage regimens) was at most 3 h, the “plasma TPTD concentration relative to Cmax by 2h” value (all regimens (D20, D40, W140, W280), 2h post-dose) was “less than 40 % of Cmax” and the level at 5 min (female, New Zealand White (Kbl:NZW), rabbit, plasma, sc, 20 ug/kg, Day 1, 5 min, D20 (20 μg/kg sc once-daily), n=3, IRMA, mean) was 7.14 ng/mL. For the same molecule, the level at 0.25 h (female, New Zealand White (Kbl:NZW), rabbit, plasma, sc, 20 ug/kg, Day 1, 15 min, D20 (20 μg/kg sc once-daily), n=3, IRMA, mean) was 14.9 ng/mL, the level at 0.5 h (female, New Zealand White (Kbl:NZW), rabbit, plasma, sc, 20 ug/kg, Day 1, 30 min, D20 (20 μg/kg sc once-daily), n=3, IRMA, mean) was 19.8 ng/mL and the level at 1 h (female, New Zealand White (Kbl:NZW), rabbit, plasma, sc, 20 ug/kg, Day 1, 1 hour, D20 (20 μg/kg sc once-daily), n=3, IRMA, mean) was 11.8 ng/mL. It also gave a level at 2 h (female, New Zealand White (Kbl:NZW), rabbit, plasma, sc, 20 ug/kg, Day 1, 2 hour, D20 (20 μg/kg sc once-daily), n=3, IRMA, mean) of 1.77 ng/mL, a level at 5 min (female, New Zealand White (Kbl:NZW), rabbit, plasma, sc, 20 ug/kg, Day 22, 5 min, D20 (20 μg/kg sc once-daily), n=3, IRMA, mean) of 7.06 ng/mL and a level at 0.25 h (female, New Zealand White (Kbl:NZW), rabbit, plasma, sc, 20 ug/kg, Day 22, 15 min, D20 (20 μg/kg sc once-daily), n=3, IRMA, mean) of 17 ng/mL. The level at 0.5 h (female, New Zealand White (Kbl:NZW), rabbit, plasma, sc, 20 ug/kg, Day 22, 30 min, D20 (20 μg/kg sc once-daily), n=3, IRMA, mean) was 24.6 ng/mL, the level at 1 h (female, New Zealand White (Kbl:NZW), rabbit, plasma, sc, 20 ug/kg, Day 22, 1 hour, D20 (20 μg/kg sc once-daily), n=3, IRMA, mean) was 20.5 ng/mL and the level at 2 h (female, New Zealand White (Kbl:NZW), rabbit, plasma, sc, 20 ug/kg, Day 22, 2 hour, D20 (20 μg/kg sc once-daily), n=3, IRMA, mean) was 3.8 ng/mL. It also gave a level at 24 h (female, New Zealand White (Kbl:NZW), rabbit, plasma, sc, 20 ug/kg, Day 22, 24 hour, D20 (20 μg/kg sc once-daily), n=3, IRMA, mean) of 0.13 ng/mL, a level at 5 min (female, New Zealand White (Kbl:NZW), rabbit, plasma, sc, 40 ug/kg, Day 1, 5 min, D40 (40 μg/kg sc once-daily), n=3, IRMA, mean) of 9.83 ng/mL and a level at 0.25 h (female, New Zealand White (Kbl:NZW), rabbit, plasma, sc, 40 ug/kg, Day 1, 15 min, D40 (40 μg/kg sc once-daily), n=3, IRMA, mean) of 23.6 ng/mL. The level at 0.5 h (female, New Zealand White (Kbl:NZW), rabbit, plasma, sc, 40 ug/kg, Day 1, 30 min, D40 (40 μg/kg sc once-daily), n=3, IRMA, mean) was 34.3 ng/mL, the level at 1 h (female, New Zealand White (Kbl:NZW), rabbit, plasma, sc, 40 ug/kg, Day 1, 1 hour, D40 (40 μg/kg sc once-daily), n=3, IRMA, mean) was 29.9 ng/mL and the level at 2 h (female, New Zealand White (Kbl:NZW), rabbit, plasma, sc, 40 ug/kg, Day 1, 2 hour, D40 (40 μg/kg sc once-daily), n=3, IRMA, mean) was 10.6 ng/mL. For the same molecule, the level at 5 min (female, New Zealand White (Kbl:NZW), rabbit, plasma, sc, 40 ug/kg, Day 22, 5 min, D40 (40 μg/kg sc once-daily), n=3, IRMA, mean) was 10.3 ng/mL, the level at 0.25 h (female, New Zealand White (Kbl:NZW), rabbit, plasma, sc, 40 ug/kg, Day 22, 15 min, D40 (40 μg/kg sc once-daily), n=3, IRMA, mean) was 32.7 ng/mL and the level at 0.5 h (female, New Zealand White (Kbl:NZW), rabbit, plasma, sc, 40 ug/kg, Day 22, 30 min, D40 (40 μg/kg sc once-daily), n=3, IRMA, mean) was 54 ng/mL. The level at 1 h (female, New Zealand White (Kbl:NZW), rabbit, plasma, sc, 40 ug/kg, Day 22, 1 hour, D40 (40 μg/kg sc once-daily), n=3, IRMA, mean) was 49.2 ng/mL, the level at 2 h (female, New Zealand White (Kbl:NZW), rabbit, plasma, sc, 40 ug/kg, Day 22, 2 hour, D40 (40 μg/kg sc once-daily), n=3, IRMA, mean) was 14 ng/mL and the level at 5 min (female, New Zealand White (Kbl:NZW), rabbit, plasma, sc, 140 ug/kg, Day 1, 5 min, W140 (140 μg/kg sc once-weekly), n=3, IRMA, mean) was 38 ng/mL. For the same molecule, the level at 0.25 h (female, New Zealand White (Kbl:NZW), rabbit, plasma, sc, 140 ug/kg, Day 1, 15 min, W140 (140 μg/kg sc once-weekly), n=3, IRMA, mean) was 85.4 ng/mL, the level at 0.5 h (female, New Zealand White (Kbl:NZW), rabbit, plasma, sc, 140 ug/kg, Day 1, 30 min, W140 (140 μg/kg sc once-weekly), n=3, IRMA, mean) was 132 ng/mL and the level at 1 h (female, New Zealand White (Kbl:NZW), rabbit, plasma, sc, 140 ug/kg, Day 1, 1 hour, W140 (140 μg/kg sc once-weekly), n=3, IRMA, mean) was 121 ng/mL. It also gave a level at 2 h (female, New Zealand White (Kbl:NZW), rabbit, plasma, sc, 140 ug/kg, Day 1, 2 hour, W140 (140 μg/kg sc once-weekly), n=3, IRMA, mean) of 50.4 ng/mL, a level at 5 min (female, New Zealand White (Kbl:NZW), rabbit, plasma, sc, 140 ug/kg, Day 22, 5 min, W140 (140 μg/kg sc once-weekly), n=3, IRMA, mean) of 33.5 ng/mL and a level at 0.25 h (female, New Zealand White (Kbl:NZW), rabbit, plasma, sc, 140 ug/kg, Day 22, 15 min, W140 (140 μg/kg sc once-weekly), n=3, IRMA, mean) of 124 ng/mL. The level at 0.5 h (female, New Zealand White (Kbl:NZW), rabbit, plasma, sc, 140 ug/kg, Day 22, 30 min, W140 (140 μg/kg sc once-weekly), n=3, IRMA, mean) was 202 ng/mL and the level at 1 h (female, New Zealand White (Kbl:NZW), rabbit, plasma, sc, 140 ug/kg, Day 22, 1 hour, W140 (140 μg/kg sc once-weekly), n=3, IRMA, mean) was 147 ng/mL.
